Structures are written as SMILES.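 Method: 48-hour compound exposure of cells in 96-well plates, five concentrations, linear interpolation of endpoints. TGI denotes the concentration required for complete inhibition of growth.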

Among the test systems are A498 renal; CAKI-1 renal; EKVX NSCLC; HL-60(TB) leukemia; HOP-92 NSCLC; K-562 leukemia; MALME-3M melanoma; NCI-H23 lung; OVCAR-3 ovarian; OVCAR-4 ovarian; OVCAR-8 ovarian; PC-3 prostate; RXF 393 renal; UO-31 renal; TK-10 renal.
Experiment in all cases: DTP human tumour cell line panel, 48 h

As usually defined, the TGI is the concentration at which net growth stops. A lower TGI goes with more potent growth arrest. With `Cc1cccc(NC(=S)N=Nc2c(O)[nH]c3ccccc23)c1`, the TGI in the test with A498 renal is 98.1 µM; with CAKI-1 renal, > 100 µM; in the test on EKVX NSCLC, > 100 µM; in the test with HL-60(TB) leukemia, > 100 µM; in the test with HOP-92 NSCLC it was > 100 µM; with K-562 leukemia it was > 100 µM. Besides, the TGI in the test with MALME-3M melanoma, in the test with NCI-H23 lung, in the test on OVCAR-3 ovarian, in the test with OVCAR-4 ovarian, with OVCAR-8 ovarian and in the test with PC-3 prostate was > 100 µM in each case. Further, the TGI in the test with RXF 393 renal and in the test with UO-31 renal was > 100 µM each time.
For the molecule `CC[n+]1c(/C=C/c2ccc(N(CCCl)CCCl)cc2)ccc2cc(NC(=O)/C=C/c3ccccc3)ccc21`, the concentration for total growth inhibition (TGI) in the test with A498 renal was 27.4 µM; in the test with CAKI-1 renal it was 19.2 µM; in the test with EKVX NSCLC it was 4.76 µM; in the test with HL-60(TB) leukemia, 0.389 µM; in the test with HOP-92 NSCLC, 1.07 µM; in the test on K-562 leukemia, 0.235 µM. The TGI with MALME-3M melanoma came to 0.81 µM; in the test on NCI-H23 lung, 1.98 µM; in the test with OVCAR-3 ovarian, 11.4 µM; with OVCAR-8 ovarian, 5.7 µM; with PC-3 prostate, 1.09 µM; in the test with RXF 393 renal it was 2.84 µM. Also, the TGI stood at 24.5 µM in the test with TK-10 renal and 52.2 µM in the test on UO-31 renal.
`O[C@@H]1C[C@@H]2N[C@@](O)(C[C@@H]2O)[C@H]1O`: the TGI with A498 renal, in the test with EKVX NSCLC, in the test on HL-60(TB) leukemia, with HOP-92 NSCLC, in the test on K-562 leukemia and in the test on MALME-3M melanoma was > 100 µM throughout. Also, the TGI in the test with NCI-H23 lung, with OVCAR-3 ovarian, with OVCAR-4 ovarian, with OVCAR-8 ovarian, with PC-3 prostate and in the test on RXF 393 renal was > 100 µM each time. Moreover, the TGI with TK-10 renal and in the test on UO-31 renal was > 100 µM throughout.
For `COc1cc(COC(=O)N2CCC2C(=O)O)c([N+](=O)[O-])cc1OC` (centres undefined), the concentration for total growth inhibition (TGI) in the test with A498 renal, in the test with EKVX NSCLC, with HL-60(TB) leukemia, with HOP-92 NSCLC, in the test on K-562 leukemia and in the test with MALME-3M melanoma was > 100 µM throughout. Besides, the TGI with NCI-H23 lung, in the test with OVCAR-3 ovarian, in the test on OVCAR-8 ovarian, in the test with PC-3 prostate, in the test on RXF 393 renal and in the test with TK-10 renal was > 100 µM each time. Further, in the test with UO-31 renal, the TGI was > 100 µM.
Consider `COCCOCCOC1=C(Cl)C(=O)c2c(O)ccc(O)c2C1=O`, for which the TGI in the test with A498 renal stood at 13.9 µM; in the test on CAKI-1 renal it was 3.17 µM; with EKVX NSCLC, 21.7 µM; in the test on HL-60(TB) leukemia, 1.89 µM; in the test with HOP-92 NSCLC, 3.95 µM; with MALME-3M melanoma, 3.34 µM. Moreover, the TGI with NCI-H23 lung turned out to be 6.03 µM; in the test on OVCAR-3 ovarian, 3.19 µM; with OVCAR-4 ovarian, 4.36 µM; with OVCAR-8 ovarian, 5.99 µM; with PC-3 prostate it was 17.5 µM; in the test on RXF 393 renal, 2.99 µM. Also, the values for the TGI with TK-10 renal and in the test with UO-31 renal were 3.25 µM and 4.83 µM, respectively.
As to `c1ccc(-c2nn(-c3ccccc3)[n+](-c3ccccc3)n2)cc1`, the TGI is > 100 µM in the test on A498 renal; > 100 µM with CAKI-1 renal; > 43 µM in the test on EKVX NSCLC; 6.47 µM in the test on HL-60(TB) leukemia; 96.3 µM in the test with HOP-92 NSCLC; > 100 µM in the test with K-562 leukemia. Besides, the TGI was 2.93 µM with MALME-3M melanoma; 28.3 µM with NCI-H23 lung; > 100 µM with OVCAR-4 ovarian; > 100 µM in the test with OVCAR-8 ovarian; > 20.7 µM in the test with PC-3 prostate; 80.6 µM in the test with RXF 393 renal. The TGI was > 88 µM with TK-10 renal and > 100 µM with UO-31 renal.
Take `C=CC[C@H](C)CCC(=O)N1[C@H]2CC3CC[C@@]2(CS1(=O)=O)C3(C)C`: the TGI with A498 renal is > 100 µM; in the test with CAKI-1 renal it was > 100 µM; in the test with EKVX NSCLC, > 100 µM; in the test with HL-60(TB) leukemia, 57.3 µM; in the test with HOP-92 NSCLC, > 100 µM; in the test with MALME-3M melanoma, > 100 µM. In addition, the total growth inhibition concentration (TGI) with NCI-H23 lung, with OVCAR-4 ovarian, in the test on OVCAR-8 ovarian, in the test with PC-3 prostate, in the test with RXF 393 renal and in the test on TK-10 renal was > 100 µM each time. Further, the TGI in the test with UO-31 renal is > 100 µM.
Consider `Cc1c(NC(=S)Nc2ccc(Cl)cc2)c(=O)n(-c2ccccc2)n1C`, for which the TGI in the test on A498 renal, in the test with CAKI-1 renal, with EKVX NSCLC, in the test with HL-60(TB) leukemia, with HOP-92 NSCLC and in the test on K-562 leukemia was > 100 µM throughout. Moreover, the TGI in the test with MALME-3M melanoma, with NCI-H23 lung, in the test on OVCAR-3 ovarian, with PC-3 prostate, with RXF 393 renal and with TK-10 renal was > 100 µM each time. The TGI with UO-31 renal is > 100 µM.

For the origin of these results see PubChem BioAssay (NCI).
